For assay [1], the target named is T1, 5-HT2C receptor (Homo sapiens, UniProt P28335). The assay is described as follows: Functional activity, FLIPR calcium assay, CHO cells expressing human 5-HT2C. The conditions noted are these: for h5-HT2C Rel. Eff.: relative efficacy vs response to 10 μM 5-HT (defined as 100%). On the set-up: expressed in transfected cells; host or cells: CHO cells. It counts as cell-based. On the procedure: (§1) The functional activity of compounds of formula (I) was assayed using a Fluorimetric Imaging Plate reader (FLIPR). CHO cells expressing the human 5-HT2C or human 5-HT2A receptors were counted and plated into standard 96 well microtitre plates on the day before testing to give a confluent monolayer. The cells were then dye loaded with the calcium sensitive dye, Fluo-3-AM. Unincorporated dye was removed using an automated cell washer to leave a total volume of 100 μL/well of assay buffer (Hanks balanced salt solution containing 20 mM Hepes and 2.5 mM probenecid). The drug (dissolved in 50 μL of the assay buffer) was added at a rate of 70 μL/sec to each well of the FLIPR 96 well plate during fluorescence measurements. The measurements were taken at 1 sec intervals and the maximum fluorescent signal was measured (approx 10–15 secs after drug addition) and compared with the response produced by 10 μM 5-HT (defined as 100%) to which it was expressed as a percentage response (relative efficacy). Dose response curves were constructed using Graphpad Prism (Graph Software Inc.).
T1 sequence (P28335 33-458): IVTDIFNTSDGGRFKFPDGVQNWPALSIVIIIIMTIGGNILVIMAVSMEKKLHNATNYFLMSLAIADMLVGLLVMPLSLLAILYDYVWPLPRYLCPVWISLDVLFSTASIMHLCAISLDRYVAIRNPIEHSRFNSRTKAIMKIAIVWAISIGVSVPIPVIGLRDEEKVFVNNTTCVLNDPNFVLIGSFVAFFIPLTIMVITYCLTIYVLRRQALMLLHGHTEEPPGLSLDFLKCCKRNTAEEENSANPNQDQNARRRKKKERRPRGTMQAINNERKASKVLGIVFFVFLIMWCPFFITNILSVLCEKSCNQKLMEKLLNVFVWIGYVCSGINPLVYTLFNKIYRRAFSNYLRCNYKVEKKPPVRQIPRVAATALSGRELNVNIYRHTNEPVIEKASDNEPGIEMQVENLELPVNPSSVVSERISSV

In a further assay the target is T2, human 5-HT2B receptors (Homo sapiens, UniProt P41595).
T2 construct: expressed in transfected cells; host or cells: CHO cell line
T2 sequence (P41595 whole entry): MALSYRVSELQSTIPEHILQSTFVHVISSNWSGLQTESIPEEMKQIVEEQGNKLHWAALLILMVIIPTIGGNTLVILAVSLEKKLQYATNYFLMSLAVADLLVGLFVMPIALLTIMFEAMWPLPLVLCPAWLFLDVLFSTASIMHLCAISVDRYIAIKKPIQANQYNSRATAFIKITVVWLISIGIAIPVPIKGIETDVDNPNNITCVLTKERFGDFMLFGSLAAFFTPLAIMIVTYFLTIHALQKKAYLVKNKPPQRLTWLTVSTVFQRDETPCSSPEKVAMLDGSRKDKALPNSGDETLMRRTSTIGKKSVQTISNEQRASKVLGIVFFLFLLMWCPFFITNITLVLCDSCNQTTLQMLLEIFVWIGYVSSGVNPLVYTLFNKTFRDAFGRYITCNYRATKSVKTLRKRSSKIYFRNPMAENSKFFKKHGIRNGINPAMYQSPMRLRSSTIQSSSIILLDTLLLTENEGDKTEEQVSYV
Description: Binding to the 5-HT2B receptor, [3H]-5-HT, CHO cell line (Method (b)). Conditions: human 5-HT2B in CHO cell line, read-out: Ki (2B). Here is the method: (§2) The binding of compounds of formula (I) to serotonin receptors was determined in vitro by standard methods. The activity of the test compounds was investigated in accordance with the assays given below.
Method (b): For the binding to the 5-HT2B receptor, the 5-HT2B receptors were radiolabeled with [^3H]-5-HT. The affinity of the compounds for human 5-HT2B receptors in a CHO cell line was determined according to the procedure of K. Schmuck, C. Ullmer, P. Engels and H. Lubbert, FEBS Lett., 1994, 342, 85–90.

Assay [2] has as its target T3, 5-HT2A receptor (Homo sapiens, UniProt P28223). Description: Functional activity, FLIPR calcium assay, CHO cells expressing human 5-HT2A. The assay is classed as cell-based. Also noted: expressed in transfected cells; host or cells: CHO cells. Conditions: for EC50: FLIPR, CHO cells expressing human 5-HT2A, read-out: h5-HT2A EC50; for h5-HT2A Rel. Eff.: relative efficacy vs response to 10 μM 5-HT (defined as 100%). On the procedure: as §1

For assay [3], the target named is T3, 5-HT2A receptor. Description: Binding to the 5-HT2A receptor, [125I]-DOI, CHO cell line (Method (c)). On the set-up: expressed in transfected cells; host or cells: CHO cell line. Conditions: read-out: Ki (2A). Here is the method:
as §2
Method (c): For the binding to the 5-HT2A receptor, the 5-HT2A receptors were radiolabeled with [^125I]-DOI. The affinity of the compounds for 5-HT2A receptors in a CHO cell line was determined according to the procedure of D. J. McKenna and S. J. Peroutka, J. Neurosci., 1989, 9, 3482–90.

For assay [4], the target named is T1, 5-HT2C receptor. The assay is described as follows: Binding to the 5-HT2C receptor, [3H]-5-HT, CHO cell line (Method (a)). Also noted: expressed in transfected cells; host or cells: CHO cell line. On the procedure:
as §2
Method (a): For the binding to the 5-HT2C receptor, the 5-HT2C receptors were radiolabeled with [^3H]-5-HT. The affinity of the compounds for 5-HT2C receptors in a CHO cell line was determined according to the procedure of D. Hoyer, G. Engel and H. O. Kalkman, European J. Pharmacol., 1985, 118, 13–23.

T3 sequence (P28223 whole entry): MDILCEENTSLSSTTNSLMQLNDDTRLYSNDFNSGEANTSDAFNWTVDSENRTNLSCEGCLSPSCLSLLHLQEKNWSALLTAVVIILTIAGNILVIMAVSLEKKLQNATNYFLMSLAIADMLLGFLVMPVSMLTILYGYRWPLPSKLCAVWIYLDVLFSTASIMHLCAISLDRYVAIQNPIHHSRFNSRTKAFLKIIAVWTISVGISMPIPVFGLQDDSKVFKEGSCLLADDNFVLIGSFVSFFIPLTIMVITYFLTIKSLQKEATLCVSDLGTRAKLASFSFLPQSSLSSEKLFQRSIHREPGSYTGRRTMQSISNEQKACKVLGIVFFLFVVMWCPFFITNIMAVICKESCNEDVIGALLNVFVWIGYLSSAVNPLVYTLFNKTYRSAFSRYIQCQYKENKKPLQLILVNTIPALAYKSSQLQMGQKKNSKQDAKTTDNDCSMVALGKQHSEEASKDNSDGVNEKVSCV

In general, EC50 refers to the midpoint of the concentration-response curve. The Ki is the equilibrium dissociation constant of an inhibitor or competing ligand from its target. On to `Cc1c2n(c3nc(Cl)ccc13)[C@H](C)CNC2` [Example 20, (R)-6-Chloro-4,9-dimethyl-1,2,3,4-tetrahydro-2,4a,5-triaza-fluorene], for which the figures for the EC50 at 5-HT2C receptor [1] and on 5-HT2A receptor [2] were 7.6 nM and 11.1 nM, respectively. Besides, the “h5-HT2C Rel. Eff.” value on 5-HT2C receptor [1] was 93.3%. Also, the Ki came to 108 nM on human 5-HT2B receptors, 178 nM at 5-HT2A receptor [3] and 5.1 nM on 5-HT2C receptor [4]. For the same molecule, the “h5-HT2A Rel. Eff.” value at 5-HT2A receptor [2] is recorded as 12.0%.
Take `CCc1ccc2c(n1)N1[C@@H](CNC[C@H]1C)C2` [Example 9, (4R,9aR)-6-Ethyl-4-methyl-1,2,3,4,9,9a-hexahydro-2,4a,5-triaza-fluorene]: the EC50 is 85.4 nM at 5-HT2C receptor [1] and 644 nM on 5-HT2A receptor [2]. Also, the “h5-HT2C Rel. Eff.” value on 5-HT2C receptor [1] was 91.4%. Besides, the Ki on human 5-HT2B receptors came out at 271 nM; at 5-HT2A receptor [3] it was 212 nM; at 5-HT2C receptor [4], 16.5 nM. The “h5-HT2A Rel. Eff.” value on 5-HT2A receptor [2] is on record as 29.6%.

(Values after US7098337B2, “1,2,3,4,9,9a-hexahydro-2,4a,5-triaza-fluorene and 1,2,3,4-tetrahydro-2,4a,5-triaza-fluorene derivatives” (priority 2002, dated 2006).)
